Assay results: paper PMC4624630, “Enzymatic Synthesis of Rhamnose Containing Chemicals by Reverse Hydrolysis” (PLoS ONE, 2015)

Target: T1, RhaL1 (α-L-rhamnosidase from Alternaria sp. L1) (Alternaria sp. L1, UniProt H6UY33)
T1 construct: recombinant, secreted from Pichia pastoris GS115 (vector pPIC9K, SnaBI/NotI), N-glycosylated; about 120 kDa on SDS-PAGE, about 85 kDa after PNGase F
T1 sequence (H6UY33 20-681): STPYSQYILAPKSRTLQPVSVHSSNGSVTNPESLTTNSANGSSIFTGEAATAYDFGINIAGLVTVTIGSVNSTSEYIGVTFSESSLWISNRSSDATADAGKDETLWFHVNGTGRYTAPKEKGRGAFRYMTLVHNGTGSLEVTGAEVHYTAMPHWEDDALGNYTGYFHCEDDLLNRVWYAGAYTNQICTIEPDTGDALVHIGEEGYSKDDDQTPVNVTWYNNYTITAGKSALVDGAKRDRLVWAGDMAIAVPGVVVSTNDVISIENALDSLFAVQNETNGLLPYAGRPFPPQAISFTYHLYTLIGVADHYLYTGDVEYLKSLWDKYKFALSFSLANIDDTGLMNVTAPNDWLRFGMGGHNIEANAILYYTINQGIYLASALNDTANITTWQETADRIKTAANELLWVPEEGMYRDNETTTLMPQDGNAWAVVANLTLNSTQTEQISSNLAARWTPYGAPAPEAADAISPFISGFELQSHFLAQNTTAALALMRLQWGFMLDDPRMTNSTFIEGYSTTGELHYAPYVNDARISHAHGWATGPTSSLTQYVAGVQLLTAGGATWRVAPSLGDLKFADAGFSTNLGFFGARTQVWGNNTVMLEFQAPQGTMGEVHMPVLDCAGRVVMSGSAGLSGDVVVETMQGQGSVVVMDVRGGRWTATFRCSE
Assay: reverse hydrolysis; HPLC, product by ESI-MS and NMR
Assay type: biochemical
Conditions: glycosyl donor, acceptor D-mannitol (also D-fructose, esculin); pH 6.5, 55 °C, 48 h

## C[C@@H]1OC(O)[C@H](O)[C@H](O)[C@H]1O (stereo partly drawn) [L-rhamnose]
  reverse hydrolysis; HPLC, product by ESI-MS and NMR: synthesized by the recombinant RhaL1 using L-rhamnose as the glycosyl donor and mannitol as the acceptor
